Measurements reported in patent US11384366B2, “Lentiviral vector capable of directly reflecting type I interferon response, preparation method thereof, and applications thereof” (Fantasia Biopharma (Zhejiang) Co. Ltd., priority 2016, dated 2022).

Columns and labels:
IRF3 dimers = assay: IRF3 dimer luciferase signal in THP-1 (IRF3-BiLC) under different stimulations; assay type: cell-based, human; conditions: FIG. 2a
IRF5 dimers = assay: IRF5 dimer luciferase signal in THP-1 (IRF5-BiLC) under different stimulations; assay type: cell-based, human; conditions: FIG. 2b
IRF7 dimers = assay: IRF7 dimer luciferase signal in THP-1 (IRF7-BiLC) under different stimulations; assay type: cell-based, human; conditions: FIG. 2c
IRF3-BiLC = assay: Effect of CHX on IRF3-BiLC in THP-1 (IRF3-BiLC) cells; assay type: cell-based, human; conditions: CHX 100 ng/mL for 10 h, with or without polydA:dT stimulation; normalized to untreated groups; FIG. 5
Procedure: (§1) THP-1-Dual and THP-1 (IRF3-BiLC) cells were plated at a concentration of 1000,000 cells per mL in a 24-well plate. 4 groups were arranged for THP-1-Dual and THP-1 cells respectively, resulting in a total of 8 groups. After 12 hours, for THP-1-Dual cells, two groups of cells were transfected with Lipo2000 and stimulated with […] of polydA:dT, and the other two groups were not treated. The same treatment was performed for THP-1 (IRF3-BiLC). 4 hours after transfection, for the 2 groups of THP-1-Dual cells that were transfected and stimulated with polydA:dT, CHX with a final concentration of 100 ng/mL was added into one group. For the 2 groups of THP-1-Dual cells that were not treated, CHX with a final concentration of 100 ng/mL was added into one group. The other two groups were not treated. The same treatment was performed for THP-1 (IRF3-BiLC).
(§2) After 10 h of CHX treatment, for THP-1-Dual cells, 40 μL of supernatant was taken respectively to detect the luciferase activity. For THP-1 (IRF3-BiLC), 80 μL of Renilla luciferase lysate (purchased from Promega, E2820) was used to lyse on ice for 10 min. […] 20 μL of Renilla luciferase substrate (purchased from Promega, E2820) was added into each well, and the luciferase activity was detected by a microplate reader (purchased from Bio-Tek, Synergy H1).
(§3) The detected values of luciferase were normalized with regard to the untreated groups.

ISRE-Luc = assay: Effect of CHX on ISRE-Luc in THP-1-Dual cells; assay type: cell-based; conditions: CHX 100 ng/mL for 10 h, with or without polydA:dT stimulation; normalized to untreated groups; FIG. 6
Procedure: as §1, §2, §3

Molecule | signals of the IRF3 dimers (luciferase activity) (IRF3 dimers) | signals of the IRF5 dimers (luciferase activity) (IRF5 dimers) | signals of the IRF7 dimers (luciferase activity) (IRF7 dimers) | effect of CHX on IRF3-BiLC luciferase activity (IRF3-BiLC) | effect of CHX on ISRE-Luc luciferase activity (ISRE-Luc)
TNFa | cannot cause the formation of the signals | cannot cause the formation of the signals | cannot cause the formation of the signals |  | 
C[C@@H]1C[C@@H]([C@H](O)CC2CC(=O)NC(=O)C2)C(=O)[C@@H](C)C1 [CHX] |  |  |  | capable of reflecting the intracellular type I interferon response reaction | affected significantly
IL-1B: stimulus used on the THP-1 BiLC reporter cell lines | cannot cause the formation of the signals | cannot cause the formation of the signals | cannot cause the formation of the signals |  | 
